# Publication PMC11790914, “Chemogenomics for steroid hormone receptors (NR3)” (Communications Chemistry, 2025)
# Values joined by “and” are separate entries in the source; they are usually repeats but may differ in a detail not shown here. Identical values can stand only once. Like-named read-outs stand apart in the source and are kept apart here.
# Experiments:
# [1] = test system: HEK293T cells; assay: Cytotoxicity: necrosis induction (red fluorescent dye for permeable plasma membranes); format: cell-based; conditions: 1 µM, 24 h, necrotic cell count normalized to 0.1% DMSO, single replicates;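 also: compounds applied in DMEM high glucose with 0.1% FCS and 0.1% DMSO, necrotic HEK293T cells counted by red staining of cells whose plasma membranes had become permeable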
# [2] = test system: Gal4-VP16; format: cell-based; conditions: 1 µM; vs. DMSO ctrl; single replicates n=1-3
# [3] = molecular target: T1, ABL1 (Homo sapiens, UniProt P00519); assay: Liability panel screening by DSF: ABL1; format: binding; conditions: read-out: Mean ΔTM ABL1
# T1 construct: made in house
# T1 sequence (P00519 whole entry, species assumed): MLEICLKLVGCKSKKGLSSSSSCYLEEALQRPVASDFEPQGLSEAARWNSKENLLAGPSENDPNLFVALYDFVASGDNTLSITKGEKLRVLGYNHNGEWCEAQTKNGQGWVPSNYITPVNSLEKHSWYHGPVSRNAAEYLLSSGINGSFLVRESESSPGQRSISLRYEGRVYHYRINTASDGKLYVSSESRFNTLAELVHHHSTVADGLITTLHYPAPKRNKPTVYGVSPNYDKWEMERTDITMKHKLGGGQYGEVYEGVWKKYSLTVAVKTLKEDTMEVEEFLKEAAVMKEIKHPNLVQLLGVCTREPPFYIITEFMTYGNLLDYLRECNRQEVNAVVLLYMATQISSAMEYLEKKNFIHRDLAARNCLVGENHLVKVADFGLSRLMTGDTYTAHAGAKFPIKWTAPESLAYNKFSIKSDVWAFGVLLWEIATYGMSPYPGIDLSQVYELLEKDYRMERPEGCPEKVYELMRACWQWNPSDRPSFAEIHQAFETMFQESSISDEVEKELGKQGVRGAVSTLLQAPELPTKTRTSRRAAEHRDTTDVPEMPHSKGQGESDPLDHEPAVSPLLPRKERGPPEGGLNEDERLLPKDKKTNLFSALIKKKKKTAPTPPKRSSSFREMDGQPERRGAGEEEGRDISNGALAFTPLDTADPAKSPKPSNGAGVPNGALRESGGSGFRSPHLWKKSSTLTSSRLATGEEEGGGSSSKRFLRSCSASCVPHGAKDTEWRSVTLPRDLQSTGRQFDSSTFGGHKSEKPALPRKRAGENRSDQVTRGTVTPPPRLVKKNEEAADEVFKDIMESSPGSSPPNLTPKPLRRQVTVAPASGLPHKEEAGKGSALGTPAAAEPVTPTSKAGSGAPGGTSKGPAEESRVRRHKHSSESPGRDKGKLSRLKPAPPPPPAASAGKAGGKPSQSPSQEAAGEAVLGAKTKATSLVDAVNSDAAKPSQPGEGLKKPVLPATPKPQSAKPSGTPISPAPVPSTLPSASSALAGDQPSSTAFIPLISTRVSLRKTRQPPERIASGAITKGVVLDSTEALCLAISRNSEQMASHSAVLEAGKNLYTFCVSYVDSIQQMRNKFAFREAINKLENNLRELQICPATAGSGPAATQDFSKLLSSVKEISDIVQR
# Outline: (§1)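 Recombinant protein at 2 µM in 10 mM HEPES pH 7.5 with 500 mM NaCl was mixed with SYPRO Orange (1:1000) and heated at 3 °C/min up to 85 °C. Tm was taken as the Boltzmann-fit inflection point. Shifts are ∆Tm in K from technical duplicates.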
# [4] = molecular target: T2, AURKA (Homo sapiens, UniProt O14965); assay: Liability panel screening by DSF: AURKA; format: binding; conditions: read-out: Mean ΔTM AURKA
# T2 construct: made in house
# T2 sequence (O14965 1-403): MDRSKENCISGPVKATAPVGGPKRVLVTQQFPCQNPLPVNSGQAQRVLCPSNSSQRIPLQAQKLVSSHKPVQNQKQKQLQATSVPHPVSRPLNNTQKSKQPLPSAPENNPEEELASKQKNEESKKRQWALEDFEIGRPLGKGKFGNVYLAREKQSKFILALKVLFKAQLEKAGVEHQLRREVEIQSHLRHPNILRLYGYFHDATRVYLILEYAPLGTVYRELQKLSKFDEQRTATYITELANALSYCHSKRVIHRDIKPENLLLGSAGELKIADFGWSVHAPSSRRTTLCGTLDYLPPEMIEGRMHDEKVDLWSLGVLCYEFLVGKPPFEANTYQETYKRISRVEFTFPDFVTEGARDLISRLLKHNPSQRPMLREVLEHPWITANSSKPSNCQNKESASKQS
# Outline: as §1
# [5] = molecular target: T3, CDK2 (Homo sapiens, UniProt P24941); assay: Liability panel screening by DSF: CDK2; format: binding; conditions: read-out: Mean ΔTM CDK2
# T3 construct: made in house
# Outline: as §1
# [6] = molecular target: T4, FGFR3 (Homo sapiens, UniProt P22607); assay: Liability panel screening by DSF: FGFR3; format: binding; conditions: read-out: Mean ΔTM FGFR3
# T4 construct: made in house
# T4 sequence (P22607 23-806, species assumed): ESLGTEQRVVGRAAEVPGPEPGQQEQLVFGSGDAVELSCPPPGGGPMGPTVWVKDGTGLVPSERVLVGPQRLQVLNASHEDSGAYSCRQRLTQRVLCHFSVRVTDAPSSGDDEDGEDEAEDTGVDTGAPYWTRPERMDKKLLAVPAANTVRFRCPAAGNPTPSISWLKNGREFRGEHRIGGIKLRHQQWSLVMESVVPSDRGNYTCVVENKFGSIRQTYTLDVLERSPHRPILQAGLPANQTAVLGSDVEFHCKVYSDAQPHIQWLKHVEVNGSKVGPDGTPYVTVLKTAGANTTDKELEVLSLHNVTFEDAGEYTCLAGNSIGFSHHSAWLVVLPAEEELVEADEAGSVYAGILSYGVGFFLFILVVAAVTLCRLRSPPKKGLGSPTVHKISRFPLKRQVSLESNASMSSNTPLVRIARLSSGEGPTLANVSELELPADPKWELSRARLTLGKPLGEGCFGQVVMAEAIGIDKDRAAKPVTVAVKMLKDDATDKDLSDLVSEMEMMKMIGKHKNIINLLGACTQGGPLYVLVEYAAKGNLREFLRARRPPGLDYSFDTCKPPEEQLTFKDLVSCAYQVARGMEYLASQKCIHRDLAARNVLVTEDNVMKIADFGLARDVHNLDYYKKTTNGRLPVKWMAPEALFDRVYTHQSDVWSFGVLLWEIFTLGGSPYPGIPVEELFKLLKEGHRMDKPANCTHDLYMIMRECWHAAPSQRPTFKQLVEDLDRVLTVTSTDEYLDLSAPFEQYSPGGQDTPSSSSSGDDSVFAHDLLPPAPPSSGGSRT
# Outline: as §1
# [7] = molecular target: T5, GSK3B (Homo sapiens, UniProt P49841); assay: Liability panel screening by DSF: GSK3B; format: binding; conditions: read-out: Mean ΔTM GSK3B
# T5 construct: made in house
# T5 sequence (P49841 whole entry, species assumed): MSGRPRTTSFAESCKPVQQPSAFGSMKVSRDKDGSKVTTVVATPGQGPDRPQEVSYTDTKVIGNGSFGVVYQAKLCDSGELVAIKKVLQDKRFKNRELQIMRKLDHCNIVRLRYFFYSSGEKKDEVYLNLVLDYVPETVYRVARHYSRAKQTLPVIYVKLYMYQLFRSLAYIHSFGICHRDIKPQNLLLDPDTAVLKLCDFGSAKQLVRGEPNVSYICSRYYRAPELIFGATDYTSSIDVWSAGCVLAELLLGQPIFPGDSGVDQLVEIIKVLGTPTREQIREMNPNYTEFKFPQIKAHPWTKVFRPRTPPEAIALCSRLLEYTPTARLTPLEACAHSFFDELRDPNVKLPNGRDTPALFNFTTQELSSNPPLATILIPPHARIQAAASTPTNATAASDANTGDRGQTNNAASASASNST
# [8] = molecular target: T6, BRD4 (Homo sapiens, UniProt O60885); assay: Liability panel screening by DSF: BRD4; format: binding; conditions: read-out: Mean ΔTM BRD4
# T6 construct: This panel comprised ten highly ligandable kinases and bromodomains; made in house
# Outline: as §1
# [9] = molecular target: T7, BRPF1 (Homo sapiens, UniProt P55201); assay: Liability panel screening by DSF: BRPF1; format: binding; conditions: read-out: Mean ΔTM BRPF1
# T7 construct: This panel comprised ten highly ligandable kinases and bromodomains; made in house
# T7 sequence (P55201 628-732 limits assumed): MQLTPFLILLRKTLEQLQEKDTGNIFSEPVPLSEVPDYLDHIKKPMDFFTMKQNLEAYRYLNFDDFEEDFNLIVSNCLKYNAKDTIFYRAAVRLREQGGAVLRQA
# Outline: as §1
# [10] = molecular target: T8, CSNK1D (Homo sapiens, UniProt P48730); assay: Liability panel screening by DSF: CSNK1D; format: binding; conditions: read-out: Mean ΔTM CSNK1D
# T8 construct: made in house
# T8 sequence (P48730 whole entry, species assumed): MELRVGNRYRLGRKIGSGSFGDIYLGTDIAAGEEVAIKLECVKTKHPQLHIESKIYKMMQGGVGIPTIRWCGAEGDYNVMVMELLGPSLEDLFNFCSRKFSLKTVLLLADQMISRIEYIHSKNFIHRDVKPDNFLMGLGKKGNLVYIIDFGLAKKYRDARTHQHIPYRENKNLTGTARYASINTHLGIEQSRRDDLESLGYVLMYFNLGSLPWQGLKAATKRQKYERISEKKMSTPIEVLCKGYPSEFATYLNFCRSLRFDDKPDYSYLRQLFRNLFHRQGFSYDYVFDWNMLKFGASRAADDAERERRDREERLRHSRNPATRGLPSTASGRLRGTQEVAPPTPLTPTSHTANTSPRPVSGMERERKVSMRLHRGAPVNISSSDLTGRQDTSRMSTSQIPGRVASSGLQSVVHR
# Outline: as §1
# [11] = molecular target: T9, MAPK1 (Homo sapiens, UniProt P28482); assay: Liability panel screening by DSF: MAPK1; format: binding; conditions: read-out: Mean ΔTM MAPK1
# T9 construct: made in house
# T9 sequence (P28482 whole entry, species assumed): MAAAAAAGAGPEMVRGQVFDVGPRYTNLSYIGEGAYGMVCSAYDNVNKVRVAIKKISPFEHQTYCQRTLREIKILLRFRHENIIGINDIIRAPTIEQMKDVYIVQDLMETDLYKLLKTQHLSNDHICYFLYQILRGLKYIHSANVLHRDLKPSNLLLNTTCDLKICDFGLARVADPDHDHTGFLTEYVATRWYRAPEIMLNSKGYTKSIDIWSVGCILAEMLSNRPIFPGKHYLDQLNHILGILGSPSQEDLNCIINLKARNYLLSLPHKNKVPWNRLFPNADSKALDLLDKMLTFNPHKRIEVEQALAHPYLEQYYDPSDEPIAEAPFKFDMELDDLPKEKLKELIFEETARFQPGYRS
# Outline: as §1
# [12] = molecular target: T10, TRIM24 (Homo sapiens, UniProt O15164); assay: Liability panel screening by DSF: TRIM24; format: binding; conditions: read-out: Mean ΔTM TRIM24
# T10 construct: This panel comprised ten highly ligandable kinases and bromodomains; made in house
# T10 sequence (O15164 899-1004 limits assumed): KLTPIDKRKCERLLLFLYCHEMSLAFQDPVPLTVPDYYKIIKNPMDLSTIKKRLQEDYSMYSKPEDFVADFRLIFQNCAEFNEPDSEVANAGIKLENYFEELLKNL
# Outline: as §1
# [13] = test system: NF-κB activity in HEK293 NF-κB reporter cells; assay: NF-kB activity assay (GFP reporter, ionomycin/PMA); format: cell-based; conditions: for Mean NFκB response: n=3; for NF-κB activity (inflammatory response to ionomycin/PMA): HEK293 NF-κB reporter cells, compounds at recommended concentrations, imaged over 24 h, n = 3
# Outline: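 Reporter readout: GFP-expressing cells normalized to confluence, imaged every 90 min across 24 h after ionomycin (100 ng/mL)/PMA (10 ng/mL) stimulation of HEK293 cells pre-treated 4 h with compound (0.1% DMSO); triplicate independent experiments.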
# [14] = test system: ATF6 activity in Hela ATF6 reporter cells; assay: Endoplasmic reticulum stress assay (ATF6 Renilla luciferase reporter, tunicamycin); format: cell-based; conditions: Homo sapiens, HeLa, 1 µM, single replicates n=1 to n=5; read-out: ER stress [rel. ATF6 activity]
# Outline: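 ER stress was induced by 100 ng/mL tunicamycin added 4 h after compound (0.1% DMSO) to HeLa ATF6 reporter cells. After 18 h more, Renilla luciferase signal was read and expressed relative to DMSO control, n=5 biological replicates.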
# [15] = test system: NR3C4 (AR); conditions: cited from earlier work
# [16] = test system: HEK293T cells; assay: Cytotoxicity: metabolic activity (WST-8 / CCK-8 assay); conditions: 1 µM; HEK293T, 24 h; WST-8; normalized to 0.1% DMSO; single replicates
# [17] = test system: HEK293T cells; assay: Cytotoxicity: growth-rate (change in confluence over 24 h); conditions: 1 µM, normalized to 0.1% DMSO control, single replicates (n=1...)
# [18] = test system: HEK293T cells; assay: Cytotoxicity: apoptosis induction (caspase-3/7 DEVD fluorogenic DNA dye); conditions: 1 µM; HEK293T, 24 h; apoptotic cell count normalized to 0.1% DMSO; single replicates
smiles,measurement,setting,value
CC(=O)Nc1ccc(OC[C@](C)(O)C(=O)Nc2ccc([N+](=O)[O-])c(C(F)(F)F)c2)cc1 [Andarine],Necrosis induction [NI],[1],0.97 and 1.10 and 1.08 and 1.02
same,VP16 control [fold reporter gene activity],[2],1.16 fold reporter gene activity and 1.15 fold reporter gene activity and 1.08 fold reporter gene activity
same,ΔTm at 20 µM,[3],0.78 °C
same,ΔTm at 20 µM,[4],-0.0326 °C
same,ΔTm at 20 µM,[5],0.35 °C
same,ΔTm at 20 µM,[6],2.59 °C
same,ΔTm at 20 µM,[7],0.71 °C
same,ΔTm at 20 µM,[8],-0.77 °C
same,ΔTm at 20 µM,[9],0.97 °C
same,ΔTm at 20 µM,[10],0.23 °C
same,ΔTm at 20 µM,[11],-0.26 °C
same,ΔTm at 20 µM,[12],0.0216 °C
same,Mean NFκB response,"[13]; 1 µM, 1,5 h",2599.83 GFP+-cells/confluence ∙ 1000
same,Mean NFκB response,"[13]; 1 µM, 4,5 h",2912.69 GFP+-cells/confluence ∙ 1000
same,Mean NFκB response,"[13]; 1 µM, 7,5 h",4207.99 GFP+-cells/confluence ∙ 1000
same,Mean NFκB response,"[13]; 1 µM, 10,5 h",8408.10 GFP+-cells/confluence ∙ 1000
same,Mean NFκB response,"[13]; 1 µM, 13,5 h",11806.03 GFP+-cells/confluence ∙ 1000
same,Mean NFκB response,"[13]; 1 µM, 16,6 h",14271.49 GFP+-cells/confluence ∙ 1000
same,Mean NFκB response,"[13]; 1 µM, 19,5 h",16631.36 GFP+-cells/confluence ∙ 1000
same,Mean NFκB response,"[13]; 1 µM, 22,5 h",18398.57 GFP+-cells/confluence ∙ 1000
same,Mean NFκB response,"[13]; 1 µM, 3 h",2627.11 GFP+-cells/confluence ∙ 1000
same,Mean NFκB response,"[13]; 1 µM, 6 h",3252.11 GFP+-cells/confluence ∙ 1000
same,Mean NFκB response,"[13]; 1 µM, 9 h",5899.76 GFP+-cells/confluence ∙ 1000
same,Mean NFκB response,"[13]; 1 µM, 12 h",10166.51 GFP+-cells/confluence ∙ 1000
same,Mean NFκB response,"[13]; 1 µM, 15 h",13144.54 GFP+-cells/confluence ∙ 1000
same,Mean NFκB response,"[13]; 1 µM, 18 h",15566.10 GFP+-cells/confluence ∙ 1000
same,Mean NFκB response,"[13]; 1 µM, 21 h",17508.52 GFP+-cells/confluence ∙ 1000
same,Mean NFκB response,"[13]; 1 µM, 24 h",19523.33 GFP+-cells/confluence ∙ 1000
same,NF-κB activity (inflammatory response to ionomycin/PMA),[13],anti-inflammatory effect
same,activity at 1 µM,[14],93%
same,"rel. activity from literature, NR3C4 (AR): % of DHT","[15]; of DHT (dihydrotestosterone), ref Supplementary Table 1",93 ± 7%
same,EC50,"[15]; read-out: Potency [nM] EC50, NR3C4 (AR), (lit.), ref Supplementary Table 1",4 ± 0.7 nM
same,Metabolic activity [MA],[16],0.98 and 1.03 and 0.99 and 1.08 and 1.06 (2×) and 1.01 and 1.09
same,Growth rate [GR],[17],0.83 (2×) and 2.46 and 0.88 and 1.35 and 0.73 and 0.55 and 1.46 and 1.51 and 2.55
same,Apoptosis induction [AI],[18],0.62 and 0.88 and 1.01 and 1.08 and 0.95 and 0.84
CC(=O)O[C@]1(C(C)=O)CC[C@H]2[C@@H]3C=C(Cl)C4=CC(=O)[C@@H]5C[C@@H]5[C@]4(C)[C@H]3CC[C@@]21C [Cyproterone acetate],Necrosis induction [NI],[1],0.92 and 0.81 and 0.87 and 0.98
same,VP16 control [fold reporter gene activity],[2],1.23 fold reporter gene activity and 1.09 fold reporter gene activity and 0.95 fold reporter gene activity
same,ΔTm at 20 µM,"[3]; DSF, 20 µM, n=2",0.36 °C
same,ΔTm at 20 µM,"[4]; DSF, 20 µM, n=2",-1.49 °C
same,ΔTm at 20 µM,"[5]; DSF, 20 µM, n=2",0.15 °C
same,ΔTm at 20 µM,"[6]; DSF, 20 µM, n=2",0.57 °C
same,ΔTm at 20 µM,"[7]; DSF, 20 µM, n=2",-0.72 °C
same,ΔTm at 20 µM,"[8]; DSF, 20 µM, n=2",-1.71 °C
same,ΔTm at 20 µM,"[9]; DSF, 20 µM, n=2",-1.28 °C
same,ΔTm at 20 µM,"[10]; DSF, 20 µM, n=2",0.16 °C
same,ΔTm at 20 µM,"[11]; DSF, 20 µM, n=2",-0.22 °C
same,ΔTm at 20 µM,"[12]; DSF, 20 µM, n=2",-1.08 °C
same,Mean NFκB response,"[13]; 1 µM, 1,5 h",3306.11 GFP+-cells/confluence ∙ 1000
same,Mean NFκB response,"[13]; 1 µM, 4,5 h",3956.53 GFP+-cells/confluence ∙ 1000
same,Mean NFκB response,"[13]; 1 µM, 7,5 h",9166.88 GFP+-cells/confluence ∙ 1000
same,Mean NFκB response,"[13]; 1 µM, 10,5 h",19295.79 GFP+-cells/confluence ∙ 1000
same,Mean NFκB response,"[13]; 1 µM, 13,5 h",27594.44 GFP+-cells/confluence ∙ 1000
same,Mean NFκB response,"[13]; 1 µM, 16,6 h",34636.12 GFP+-cells/confluence ∙ 1000
same,Mean NFκB response,"[13]; 1 µM, 19,5 h",38741.56 GFP+-cells/confluence ∙ 1000
same,Mean NFκB response,"[13]; 1 µM, 22,5 h",41845.76 GFP+-cells/confluence ∙ 1000
same,Mean NFκB response,"[13]; 1 µM, 3 h",3525.65 GFP+-cells/confluence ∙ 1000
same,Mean NFκB response,"[13]; 1 µM, 6 h",5348.79 GFP+-cells/confluence ∙ 1000
same,Mean NFκB response,"[13]; 1 µM, 9 h",14582.16 GFP+-cells/confluence ∙ 1000
same,Mean NFκB response,"[13]; 1 µM, 12 h",23573.19 GFP+-cells/confluence ∙ 1000
same,Mean NFκB response,"[13]; 1 µM, 15 h",31392.99 GFP+-cells/confluence ∙ 1000
same,Mean NFκB response,"[13]; 1 µM, 18 h",36648.57 GFP+-cells/confluence ∙ 1000
same,Mean NFκB response,"[13]; 1 µM, 21 h",40465.37 GFP+-cells/confluence ∙ 1000
same,Mean NFκB response,"[13]; 1 µM, 24 h",42894.68 GFP+-cells/confluence ∙ 1000
same,NF-κB activity (inflammatory response to ionomycin/PMA),[13],tended to enhance NF-κB activity
same,"rel. activity from literature, NR3C4 (AR): % rem. act. of DHT",[15],52 ± 6%
same,IC50,"[15]; read-out: Potency [nM] IC50, NR3C4 (AR)",26 ± 23 nM
same,Metabolic activity [MA],[16],1.02 (2×) and 0.92 and 0.98 and 1.01 and 0.94 and 0.99 and 1.05
same,Growth rate [GR],[17],1.11 and 1.76 and 1.28 and 1.77 and 1.08 and 0.80 (2×) and 0.94 and 0.96 and 1.44
same,Apoptosis induction [AI],[18],0.80 and 0.89 and 0.91 and 1.07 and 1.28 and 0.67
